# According to patent US7297501B2, “Method and devices for running reactions on a target plate for MALDI mass spectrometry” (University of Pennsylvania, priority 2001, dated 2007):
# *: point of attachment. AMC = Cc1cc(=O)oc2cc(N*)ccc12; Cbz = O=C(OCc1ccccc1)*
# Experiments:
# plasmin [1] = settings: Morita, 1977; cited from earlier work
# thrombin [2] = target: T1, thrombin (Homo sapiens, UniProt P00734); assay: Microarray assay: aerosol deposition of thrombin onto fluorogenic substrates in DMSO/glycerol; type: biochemical; settings: after spray application of thrombin
# Procedure: Well characterized for over 30 years, serine proteases of the coagulation pathway in plasma were selected as a system in which to monitor the delivery of complex enzyme fluids to the microassay. Fluorogenic substrates in DMSO/glycerol were assayed to a glass slide.
# After spray application, thrombin caused a 65-fold increase in fluorescence activity after conversion of the boc-VPR-MCA substrate. […] Aerosol deposition of pure tPA (10 μM) to a sensing array caused significant cleavage of the tPA, thrombin and Xa substrates, resulting in fluorescence that was 18- to 20-fold above background.
# thrombin [3] = target: T1, thrombin; assay: Label-free nanoliter HTS reaction on MALDI target: thrombin release of fibrinopeptides A and B from fibrinogen, MALDI MS detection; type: biochemical; settings: benzamidine in the nanoliter reaction, FIG. 26B
# Procedure: The glycerol in the reaction was then removed, and MALDI matrix was deposited to result in a thin film suitable (FIG. 26A) for MS detection of FPA/FPB.
# A 8×12 array of reactions were printed using an OmniGrid microarrayer containing varying concentrations of fibrinogen and a fibrinopeptide MS satandard. Certain reactions contained 1 mM benzamidine. The array was activated with thrombin and incubated under humidity (top row, A), the glycerol was removed (middle row, A), and then coated with MALDI matrix (bottom row, A). […] Conditions of the MALDI MS were: Voyager—DE PRO (sinapinic acid matrix), Glu1-Fibrinopeptide B (1 ug/ml) control, Reflector Mode, Positive Polarity, 1000-2000 Da Acquisition Range, 20000 V Accelerating voltage, 2033 laser. intensity (20.0 Hz; 100/spectrum), Extraction delay time: 150 nsec, Grid voltage: 75%, Guide wire voltage: 0.002%.
# plasmin [4] = target: plasmin (Homo sapiens, UniProt P00747); assay: Microarray assay: deposition of pure plasmin onto fluorogenic substrate array; type: biochemical; settings: pure plasmin (1 μM) deposited on the array
# plasmin (Homo sapiens, UniProt P00747), sequence (P00747 581-810 limits assumed, species assumed): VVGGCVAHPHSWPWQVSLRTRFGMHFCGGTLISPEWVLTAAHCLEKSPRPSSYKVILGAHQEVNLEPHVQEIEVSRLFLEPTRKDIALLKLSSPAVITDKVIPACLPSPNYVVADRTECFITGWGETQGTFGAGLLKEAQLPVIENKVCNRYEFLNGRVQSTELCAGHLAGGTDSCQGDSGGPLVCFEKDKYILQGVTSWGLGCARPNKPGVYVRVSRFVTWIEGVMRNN
# plasmin (Homo sapiens, UniProt P00747), sequence (P00747 97-580 partner limits assumed, species assumed): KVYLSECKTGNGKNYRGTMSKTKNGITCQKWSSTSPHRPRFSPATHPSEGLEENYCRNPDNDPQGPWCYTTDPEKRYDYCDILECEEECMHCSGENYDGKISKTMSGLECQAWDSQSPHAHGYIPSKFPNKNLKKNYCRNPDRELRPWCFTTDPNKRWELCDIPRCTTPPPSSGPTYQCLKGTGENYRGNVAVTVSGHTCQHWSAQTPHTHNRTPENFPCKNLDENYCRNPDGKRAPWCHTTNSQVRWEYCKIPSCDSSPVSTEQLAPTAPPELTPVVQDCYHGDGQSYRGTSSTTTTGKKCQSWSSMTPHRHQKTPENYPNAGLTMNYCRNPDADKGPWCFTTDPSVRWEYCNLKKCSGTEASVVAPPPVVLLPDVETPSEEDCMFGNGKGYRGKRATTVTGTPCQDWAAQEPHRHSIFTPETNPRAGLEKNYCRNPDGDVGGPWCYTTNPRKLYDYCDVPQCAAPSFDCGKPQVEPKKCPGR
compound,measurement,setting,value
boc-VPR-MCA,reported plasmin activity on substrate,plasmin [1],activity
same,increase in fluorescence activity after conversion of the substrate,thrombin [2],65 fold
Cbz-Phe-Arg-{AMC},reported plasmin activity on substrate,plasmin [1],activity
N=C(N)c1ccccc1 [Benzamidine],inhibition of thrombin-mediated release of fibrinopeptides A and B (FPA/FPB),thrombin [3],completely inhibited the reaction
boc-VLK-MCA,signal above background,plasmin [4],25 fold
